Measured values taken from US10987408B2, “Compositions and methods for modulating toll-like receptor 2 activation” (THE CLEVELAND CLINIC FOUNDATION, priority 2010, dated 2021).

What was measured:
Type in all cases: cell-based
[1] = system: Mouse Lung Microvascular EC (MLEC); experiment: MLEC tube formation assay; conditions: TLR2^−/− EC
Protocol: Mouse lungs were excised, minced, and digested using a collagenase-dispase reagent (Roche Diagnostic). Digests were strained and the resulting cell suspension was plated on flasks coated with 1 mg/ml fibronectin. Thereafter, endothelial cells were isolated and characterized as described previously (Mahabeleshwar, G. H. et al., Methods Mol Med. 129:197-208, 2006).
(§1) HUVEC or MLEC cells were seeded on Matrigel-coated plates (BD Bioscience). Medium was supplemented with VEGF or protein adducts as indicated, and cells were further incubated at 37° C. for 8 h. Tube formation was observed using a phase contrast inverted microscope, and photographs were taken from each well. The data were quantified by measuring the length of tubes with ImagePro software.

[2] = system: mouse aortic endothelial cells (MAEC); experiment: Mouse aortic ring assay
Protocol: The mouse aortic ring assay was performed as previously described (Mahabeleshwar, G. H. et al., Methods Mol Med. 129:197-208, 2006).

[3] = system: HUVEC; experiment: Cell adhesion assay
Protocol: We performed cell adhesion assays as described elsewhere (Byzova, T. V. et al., J Cell Biol. 143(7):2081-2092, 1998). Briefly, 10^4 HUVEC or MLEC cells were added to ligand coated wells of a 96-well plate and incubated for 1 h in the presence of CEP-adduct or VEGF as indicated. The cells were washed with and fixed with 4% paraformaldehyde in PBS. Thereafter cells were contrasted by hematoxylin staining and photographs were taken.

[4] = system: HUVEC; experiment: HUVEC tube formation assay
Protocol: as §1

## VEGF
[1]
  EC response, tube formation: not affected by the lack of TLR2
[2]; MyD88^−/− cells
  EC sprouting, aortic ring: not affected by the lack of MyD88
[2]; TLR2^−/− mice
  EC response, aortic ring sprouting: not affected by the lack of TLR2

## Pam3CSK4
[3]
  EC adhesion stimulation: as effective a stimulator as CEP or VEGF
[4]
  pro-angiogenic effect, tube formation: as effective a stimulator as CEP or VEGF
[2]; wild type / TLR2^+/+ mice
  pro-angiogenic effect, aortic ring sprouting: induced robust sprouting
